Test results from the kinase profiling compilation of Christmann-Franck et al. (2016).

target: MELK (human) (UniProt Q14680); assay: radiometric filter-binding kinase assay, Kinase HotSpot; details: compound 0.5 µM; ATP 10 µM

**Q.** How did the residual activity turn out when `Cc1cc2ncc(-c3ccccc3)nc2cc1C` was run?
**A.** The residual activity was 91.1%.

**Q.** With `Nc1n[nH]c2nnc(-c3c(-c4ccccc4)nn4ccccc34)cc12` as the compound, how does the residual activity read?
**A.** Its residual activity is 102%.

target: TXK (human) (UniProt P42681); assay: as above; details: compound 0.5 µM; ATP 10 µM
Sequence (P42681 whole entry, looked up): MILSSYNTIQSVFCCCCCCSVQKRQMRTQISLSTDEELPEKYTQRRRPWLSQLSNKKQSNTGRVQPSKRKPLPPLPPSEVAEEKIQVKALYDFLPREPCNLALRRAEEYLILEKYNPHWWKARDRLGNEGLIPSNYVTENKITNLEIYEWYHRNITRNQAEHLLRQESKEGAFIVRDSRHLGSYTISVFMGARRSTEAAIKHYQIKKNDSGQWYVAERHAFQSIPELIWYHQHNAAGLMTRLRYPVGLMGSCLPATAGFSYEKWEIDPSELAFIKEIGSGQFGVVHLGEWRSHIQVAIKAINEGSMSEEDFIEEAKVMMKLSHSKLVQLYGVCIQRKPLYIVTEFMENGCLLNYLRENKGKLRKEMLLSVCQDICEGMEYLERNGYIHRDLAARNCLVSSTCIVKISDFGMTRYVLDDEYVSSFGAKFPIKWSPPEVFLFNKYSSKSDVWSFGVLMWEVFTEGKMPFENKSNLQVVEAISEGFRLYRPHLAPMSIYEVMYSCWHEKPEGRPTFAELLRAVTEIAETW

**Q.** For `CSc1nc(-c2ccc(F)cc2)c(-c2ccnc(NC(C)c3ccccc3)c2)[nH]1` (configuration not stated), which residual activity is on record?
**A.** Its residual activity is 93.1%.

**Q.** `O=C(NC(NC(=S)Nc1ccc(F)c([N+](=O)[O-])c1)C(Cl)(Cl)Cl)C(c1ccccc1)c1ccccc1` (configuration not stated) was tested. Which residual activity did it give?
**A.** Its residual activity is 108%.

**Q.** How did the residual activity turn out when `Cc1cc2ncc(-c3ccccc3)nc2cc1C` was run?
**A.** The residual activity was 99.5%.

**Q.** How did the residual activity turn out when `Nc1n[nH]c2nnc(-c3c(-c4ccccc4)nn4ccccc34)cc12` was run?
**A.** The residual activity was 88.8%.

target: CSNK1A1 (human) (UniProt P48729); assay: as above; details: compound 0.5 µM; ATP 10 µM
Sequence (P48729 whole entry, looked up): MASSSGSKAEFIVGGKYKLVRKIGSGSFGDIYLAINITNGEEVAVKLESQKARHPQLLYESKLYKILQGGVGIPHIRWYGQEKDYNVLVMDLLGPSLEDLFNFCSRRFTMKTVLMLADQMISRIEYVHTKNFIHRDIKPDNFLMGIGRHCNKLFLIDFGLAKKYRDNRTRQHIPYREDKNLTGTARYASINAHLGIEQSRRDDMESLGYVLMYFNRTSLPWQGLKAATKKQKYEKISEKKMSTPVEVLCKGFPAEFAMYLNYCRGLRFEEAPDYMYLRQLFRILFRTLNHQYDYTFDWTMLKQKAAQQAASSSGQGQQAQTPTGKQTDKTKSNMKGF

**Q.** For `CSc1nc(-c2ccc(F)cc2)c(-c2ccnc(NC(C)c3ccccc3)c2)[nH]1` (configuration not stated), which residual activity is on record?
**A.** Its residual activity is 82.6%.

**Q.** With `O=C(NC(NC(=S)Nc1ccc(F)c([N+](=O)[O-])c1)C(Cl)(Cl)Cl)C(c1ccccc1)c1ccccc1` (configuration not stated) as the compound, how does the residual activity read?
**A.** The residual activity was 94.1%.

**Q.** `Cc1cc2ncc(-c3ccccc3)nc2cc1C` was tested. Which residual activity did it give?
**A.** Its residual activity is 95.4%.

**Q.** For `Nc1n[nH]c2nnc(-c3c(-c4ccccc4)nn4ccccc34)cc12`, which residual activity is on record?
**A.** The residual activity was 100%.

target: LCK (human) (UniProt P06239); assay: as above; details: compound 0.5 µM; ATP 10 µM

**Q.** How did the residual activity turn out when `CSc1nc(-c2ccc(F)cc2)c(-c2ccnc(NC(C)c3ccccc3)c2)[nH]1` (configuration not stated) was run?
**A.** Its residual activity is 102%.

**Q.** With `O=C(NC(NC(=S)Nc1ccc(F)c([N+](=O)[O-])c1)C(Cl)(Cl)Cl)C(c1ccccc1)c1ccccc1` (configuration not stated) as the compound, how does the residual activity read?
**A.** Its residual activity is 91.8%.

**Q.** For `Cc1cc2ncc(-c3ccccc3)nc2cc1C`, which residual activity is on record?
**A.** The residual activity was 99.5%.

**Q.** How did the residual activity turn out when `Nc1n[nH]c2nnc(-c3c(-c4ccccc4)nn4ccccc34)cc12` was run?
**A.** The residual activity was 95.1%.

target: ACVR1 (human) (UniProt Q04771); assay: as above; details: compound 0.5 µM; ATP 10 µM
Sequence (Q04771 whole entry, looked up): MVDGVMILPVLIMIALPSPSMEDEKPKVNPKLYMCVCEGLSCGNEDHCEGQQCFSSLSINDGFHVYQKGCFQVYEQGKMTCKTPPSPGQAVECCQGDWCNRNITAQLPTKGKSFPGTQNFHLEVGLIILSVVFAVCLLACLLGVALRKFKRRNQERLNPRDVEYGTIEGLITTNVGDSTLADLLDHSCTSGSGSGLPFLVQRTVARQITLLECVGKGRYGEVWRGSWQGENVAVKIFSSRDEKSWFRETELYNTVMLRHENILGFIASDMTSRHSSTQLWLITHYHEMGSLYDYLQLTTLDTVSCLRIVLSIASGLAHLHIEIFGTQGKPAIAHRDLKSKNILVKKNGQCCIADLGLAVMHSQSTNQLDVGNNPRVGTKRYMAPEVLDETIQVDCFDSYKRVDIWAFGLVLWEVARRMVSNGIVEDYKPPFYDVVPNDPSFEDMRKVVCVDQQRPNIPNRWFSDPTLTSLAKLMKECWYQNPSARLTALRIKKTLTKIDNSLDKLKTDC

**Q.** For `CSc1nc(-c2ccc(F)cc2)c(-c2ccnc(NC(C)c3ccccc3)c2)[nH]1` (configuration not stated), which residual activity is on record?
**A.** Its residual activity is 89.3%.

**Q.** With `O=C(NC(NC(=S)Nc1ccc(F)c([N+](=O)[O-])c1)C(Cl)(Cl)Cl)C(c1ccccc1)c1ccccc1` (configuration not stated) as the compound, how does the residual activity read?
**A.** The residual activity was 98.8%.

**Q.** Which residual activity does the source give for `Cc1cc2ncc(-c3ccccc3)nc2cc1C` here?
**A.** The residual activity was 91.8%.

**Q.** For `Nc1n[nH]c2nnc(-c3c(-c4ccccc4)nn4ccccc34)cc12`, which residual activity is on record?
**A.** Its residual activity is 107%.

target: PAK1 (human) (UniProt Q13153); assay: as above; details: compound 0.5 µM; ATP 10 µM
Sequence (Q13153 whole entry, looked up): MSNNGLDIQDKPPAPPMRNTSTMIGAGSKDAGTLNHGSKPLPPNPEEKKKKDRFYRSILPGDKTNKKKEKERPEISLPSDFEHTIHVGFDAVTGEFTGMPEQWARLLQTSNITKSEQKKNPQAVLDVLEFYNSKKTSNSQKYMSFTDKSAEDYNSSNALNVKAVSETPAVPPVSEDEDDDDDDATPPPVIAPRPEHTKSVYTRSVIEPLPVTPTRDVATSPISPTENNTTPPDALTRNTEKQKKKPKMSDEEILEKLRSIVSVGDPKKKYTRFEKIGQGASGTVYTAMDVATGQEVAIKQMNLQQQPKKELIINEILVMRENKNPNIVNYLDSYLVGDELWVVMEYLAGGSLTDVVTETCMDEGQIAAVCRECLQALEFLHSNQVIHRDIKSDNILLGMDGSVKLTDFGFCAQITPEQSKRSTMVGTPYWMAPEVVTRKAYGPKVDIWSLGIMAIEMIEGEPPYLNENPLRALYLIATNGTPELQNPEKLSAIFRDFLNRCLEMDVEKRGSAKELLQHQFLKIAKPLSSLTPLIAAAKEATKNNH

**Q.** How did the residual activity turn out when `CSc1nc(-c2ccc(F)cc2)c(-c2ccnc(NC(C)c3ccccc3)c2)[nH]1` (configuration not stated) was run?
**A.** The residual activity was 97.7%.

**Q.** How did the residual activity turn out when `O=C(NC(NC(=S)Nc1ccc(F)c([N+](=O)[O-])c1)C(Cl)(Cl)Cl)C(c1ccccc1)c1ccccc1` (configuration not stated) was run?
**A.** The residual activity was 86%.

**Q.** With `Cc1cc2ncc(-c3ccccc3)nc2cc1C` as the compound, how does the residual activity read?
**A.** Its residual activity is 97.8%.

**Q.** Which residual activity does the source give for `Nc1n[nH]c2nnc(-c3c(-c4ccccc4)nn4ccccc34)cc12` here?
**A.** Its residual activity is 91.9%.

target: AURKB (human) (UniProt Q96GD4); assay: as above; details: compound 0.5 µM; ATP 10 µM
Sequence (Q96GD4 whole entry, looked up): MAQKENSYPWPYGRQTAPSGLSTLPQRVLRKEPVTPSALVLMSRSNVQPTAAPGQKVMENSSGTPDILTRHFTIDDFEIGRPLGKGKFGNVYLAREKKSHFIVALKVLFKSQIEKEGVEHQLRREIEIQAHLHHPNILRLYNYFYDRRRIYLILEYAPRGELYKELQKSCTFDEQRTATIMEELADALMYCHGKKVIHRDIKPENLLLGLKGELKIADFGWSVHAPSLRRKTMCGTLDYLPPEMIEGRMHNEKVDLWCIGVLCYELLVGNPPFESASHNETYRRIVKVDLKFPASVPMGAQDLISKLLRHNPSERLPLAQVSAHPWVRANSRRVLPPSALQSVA

**Q.** `CSc1nc(-c2ccc(F)cc2)c(-c2ccnc(NC(C)c3ccccc3)c2)[nH]1` (configuration not stated) was tested. Which residual activity did it give?
**A.** Its residual activity is 98.4%.

**Q.** How did the residual activity turn out when `O=C(NC(NC(=S)Nc1ccc(F)c([N+](=O)[O-])c1)C(Cl)(Cl)Cl)C(c1ccccc1)c1ccccc1` (configuration not stated) was run?
**A.** The residual activity was 95.3%.

**Q.** With `Cc1cc2ncc(-c3ccccc3)nc2cc1C` as the compound, how does the residual activity read?
**A.** Its residual activity is 85.4%.

**Q.** With `Nc1n[nH]c2nnc(-c3c(-c4ccccc4)nn4ccccc34)cc12` as the compound, how does the residual activity read?
**A.** The residual activity was 96.8%.

target: MARK4 (human) (UniProt Q96L34); assay: as above; details: compound 0.5 µM; ATP 10 µM
Sequence (Q96L34 whole entry, looked up): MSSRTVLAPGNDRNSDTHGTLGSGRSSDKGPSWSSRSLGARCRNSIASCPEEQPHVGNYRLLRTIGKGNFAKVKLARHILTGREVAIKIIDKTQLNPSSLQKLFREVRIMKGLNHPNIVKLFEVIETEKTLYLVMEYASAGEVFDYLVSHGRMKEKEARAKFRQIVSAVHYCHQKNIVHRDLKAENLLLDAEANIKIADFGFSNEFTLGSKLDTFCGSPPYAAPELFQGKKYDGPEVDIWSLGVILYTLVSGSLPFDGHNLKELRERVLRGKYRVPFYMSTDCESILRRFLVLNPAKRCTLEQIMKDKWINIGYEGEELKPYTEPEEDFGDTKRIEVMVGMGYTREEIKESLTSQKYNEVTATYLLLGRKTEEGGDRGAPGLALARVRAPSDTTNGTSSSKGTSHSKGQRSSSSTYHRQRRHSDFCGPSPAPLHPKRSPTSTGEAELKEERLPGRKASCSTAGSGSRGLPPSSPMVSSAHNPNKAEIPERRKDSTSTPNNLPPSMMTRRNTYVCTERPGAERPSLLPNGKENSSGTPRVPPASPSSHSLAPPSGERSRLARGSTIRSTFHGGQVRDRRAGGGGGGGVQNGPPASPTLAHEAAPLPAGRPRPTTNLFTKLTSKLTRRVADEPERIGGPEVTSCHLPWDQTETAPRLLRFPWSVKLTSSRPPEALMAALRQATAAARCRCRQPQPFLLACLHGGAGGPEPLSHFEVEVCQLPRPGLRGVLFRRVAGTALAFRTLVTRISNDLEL

**Q.** For `CSc1nc(-c2ccc(F)cc2)c(-c2ccnc(NC(C)c3ccccc3)c2)[nH]1` (configuration not stated), which residual activity is on record?
**A.** Its residual activity is 74.6%.

**Q.** How did the residual activity turn out when `O=C(NC(NC(=S)Nc1ccc(F)c([N+](=O)[O-])c1)C(Cl)(Cl)Cl)C(c1ccccc1)c1ccccc1` (configuration not stated) was run?
**A.** Its residual activity is 104%.

**Q.** For `Cc1cc2ncc(-c3ccccc3)nc2cc1C`, which residual activity is on record?
**A.** Its residual activity is 105%.

**Q.** Which residual activity does the source give for `Nc1n[nH]c2nnc(-c3c(-c4ccccc4)nn4ccccc34)cc12` here?
**A.** The residual activity was 105%.

target: TEK (human) (UniProt Q02763); assay: as above; details: compound 0.5 µM; ATP 10 µM

**Q.** How did the residual activity turn out when `CSc1nc(-c2ccc(F)cc2)c(-c2ccnc(NC(C)c3ccccc3)c2)[nH]1` (configuration not stated) was run?
**A.** Its residual activity is 90.5%.

**Q.** `O=C(NC(NC(=S)Nc1ccc(F)c([N+](=O)[O-])c1)C(Cl)(Cl)Cl)C(c1ccccc1)c1ccccc1` (configuration not stated) was tested. Which residual activity did it give?
**A.** The residual activity was 97.8%.

**Q.** `Cc1cc2ncc(-c3ccccc3)nc2cc1C` was tested. Which residual activity did it give?
**A.** Its residual activity is 99.7%.

**Q.** How did the residual activity turn out when `Nc1n[nH]c2nnc(-c3c(-c4ccccc4)nn4ccccc34)cc12` was run?
**A.** Its residual activity is 96.6%.

target: NEK1 (human) (UniProt Q96PY6); assay: as above; details: compound 0.5 µM; ATP 10 µM
Sequence (Q96PY6 whole entry, looked up): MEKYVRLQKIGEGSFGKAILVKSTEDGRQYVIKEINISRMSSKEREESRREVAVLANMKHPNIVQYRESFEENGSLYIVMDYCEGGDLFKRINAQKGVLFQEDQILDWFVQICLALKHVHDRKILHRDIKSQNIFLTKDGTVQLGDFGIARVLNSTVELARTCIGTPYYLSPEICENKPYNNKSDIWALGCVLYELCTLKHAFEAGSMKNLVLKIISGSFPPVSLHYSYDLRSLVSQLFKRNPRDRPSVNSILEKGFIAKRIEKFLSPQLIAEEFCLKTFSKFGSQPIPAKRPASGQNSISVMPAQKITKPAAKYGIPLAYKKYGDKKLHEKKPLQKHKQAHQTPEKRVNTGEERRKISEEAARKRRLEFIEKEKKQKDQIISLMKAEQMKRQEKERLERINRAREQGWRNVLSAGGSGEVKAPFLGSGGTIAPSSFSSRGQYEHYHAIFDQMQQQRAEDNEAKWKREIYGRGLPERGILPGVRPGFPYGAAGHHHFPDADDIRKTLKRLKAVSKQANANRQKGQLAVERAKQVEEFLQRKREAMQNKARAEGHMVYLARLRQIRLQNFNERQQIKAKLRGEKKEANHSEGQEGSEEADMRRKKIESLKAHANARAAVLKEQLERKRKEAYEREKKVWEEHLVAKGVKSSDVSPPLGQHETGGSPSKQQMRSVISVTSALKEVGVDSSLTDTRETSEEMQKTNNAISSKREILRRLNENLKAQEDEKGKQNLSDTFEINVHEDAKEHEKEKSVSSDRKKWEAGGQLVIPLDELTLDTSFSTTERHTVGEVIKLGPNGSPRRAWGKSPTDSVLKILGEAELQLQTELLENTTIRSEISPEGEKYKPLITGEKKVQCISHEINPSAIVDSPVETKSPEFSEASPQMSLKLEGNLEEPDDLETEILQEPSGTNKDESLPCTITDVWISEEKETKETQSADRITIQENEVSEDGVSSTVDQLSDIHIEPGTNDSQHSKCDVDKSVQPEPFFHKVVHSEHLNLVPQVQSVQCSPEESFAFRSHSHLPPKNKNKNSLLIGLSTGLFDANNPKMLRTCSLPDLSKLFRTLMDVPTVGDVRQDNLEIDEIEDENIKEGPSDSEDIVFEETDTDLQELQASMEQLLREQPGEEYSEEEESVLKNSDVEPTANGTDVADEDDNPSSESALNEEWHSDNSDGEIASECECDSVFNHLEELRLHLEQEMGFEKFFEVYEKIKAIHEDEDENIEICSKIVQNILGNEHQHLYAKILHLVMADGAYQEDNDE

**Q.** With `CSc1nc(-c2ccc(F)cc2)c(-c2ccnc(NC(C)c3ccccc3)c2)[nH]1` (configuration not stated) as the compound, how does the residual activity read?
**A.** The residual activity was 86.3%.

**Q.** `O=C(NC(NC(=S)Nc1ccc(F)c([N+](=O)[O-])c1)C(Cl)(Cl)Cl)C(c1ccccc1)c1ccccc1` (configuration not stated) was tested. Which residual activity did it give?
**A.** Its residual activity is 101%.

**Q.** How did the residual activity turn out when `Cc1cc2ncc(-c3ccccc3)nc2cc1C` was run?
**A.** Its residual activity is 96.1%.

**Q.** How did the residual activity turn out when `Nc1n[nH]c2nnc(-c3c(-c4ccccc4)nn4ccccc34)cc12` was run?
**A.** Its residual activity is 109%.

target: SRMS (human) (UniProt Q9H3Y6); assay: as above; details: compound 0.5 µM; ATP 10 µM
Sequence (Q9H3Y6 whole entry, looked up): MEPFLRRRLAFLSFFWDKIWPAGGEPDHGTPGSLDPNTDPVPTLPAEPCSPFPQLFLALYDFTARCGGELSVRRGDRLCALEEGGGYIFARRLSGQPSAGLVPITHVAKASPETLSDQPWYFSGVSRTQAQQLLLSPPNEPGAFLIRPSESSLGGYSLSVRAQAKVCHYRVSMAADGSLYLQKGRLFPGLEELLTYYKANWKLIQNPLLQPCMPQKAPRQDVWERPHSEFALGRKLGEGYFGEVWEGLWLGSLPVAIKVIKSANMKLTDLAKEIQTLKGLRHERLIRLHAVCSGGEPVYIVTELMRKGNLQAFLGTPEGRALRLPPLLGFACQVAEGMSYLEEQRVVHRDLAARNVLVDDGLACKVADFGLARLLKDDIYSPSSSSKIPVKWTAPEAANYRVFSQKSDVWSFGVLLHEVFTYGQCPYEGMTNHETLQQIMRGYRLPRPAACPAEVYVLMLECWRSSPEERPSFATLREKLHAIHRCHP

**Q.** With `CSc1nc(-c2ccc(F)cc2)c(-c2ccnc(NC(C)c3ccccc3)c2)[nH]1` (configuration not stated) as the compound, how does the residual activity read?
**A.** Its residual activity is 104%.

**Q.** For `O=C(NC(NC(=S)Nc1ccc(F)c([N+](=O)[O-])c1)C(Cl)(Cl)Cl)C(c1ccccc1)c1ccccc1` (configuration not stated), which residual activity is on record?
**A.** Its residual activity is 96.9%.

**Q.** With `Cc1cc2ncc(-c3ccccc3)nc2cc1C` as the compound, how does the residual activity read?
**A.** The residual activity was 93.5%.

**Q.** How did the residual activity turn out when `Nc1n[nH]c2nnc(-c3c(-c4ccccc4)nn4ccccc34)cc12` was run?
**A.** The residual activity was 93%.
